Experimental data taken from US8394442B2, “Process for the preparation of a flavoring concentrate, and a flavoring concentrate” (SYMRISE AG, priority 2007, dated 2013).

Assays:
[1] = log Pow* calculated by Formula 2 from log Pow and the polarity parameter P′(x) of the ethanol/water mixture; settings: solvent ethanol; for log Pow* (P′ 2%): proportion 2%; for log Pow* (P′ 4%): proportion 4%; for log Pow* (P′ 6%): proportion 6%; for log Pow* (P′ 8%): proportion 8%; for log Pow* (P′ 10%): proportion 10%; for log Pow* (P′ 30%): proportion 30%; for log Pow* (P′ 40%): proportion 40%; for log Pow* (P′ 50%): proportion 50%; for log Pow* (P′ 60%): proportion 60%; for log Pow* (P′ 70%): proportion 70%; for log Pow* (P′ 80%): proportion 80%; for log Pow* (P′ 90%): proportion 90%; for log Pow* (P′ 100%): proportion 100%
[2] = log Pow: distribution coefficient between 1-octanol and water; settings: 1-octanol/water
From the text: Log Pow*=log Pow*−x*P′(x)/log Pow Formula 2: • where log Pow is the decimal logarithm of the distribution coefficient of a substance between 1-octanol and water, • x is the resulting solvent proportion based on the total volume proportion, normalized as 1.0, and • P′(x) is the polarity parameter for the corresponding solvent for the solvent proportion x.

Compound	log Pow* (P′ 2%) [1]	log Pow* (P′ 4%) [1]	log Pow* (P′ 6%) [1]	log Pow* (P′ 8%) [1]	log Pow* (P′ 10%) [1]	log Pow* (P′ 30%) [1]	log Pow* (P′ 40%) [1]	log Pow* (P′ 50%) [1]	log Pow* (P′ 60%) [1]	log Pow* (P′ 70%) [1]	log Pow* (P′ 80%) [1]	log Pow* (P′ 90%) [1]	log Pow* (P′ 100%) [1]	log Pow [2]
CC(=O)/C=C/C1=C(C)CCCC1(C)C [beta-ionone]	3.80	3.75	3.70	3.66	3.62	3.29	3.17	3.06	2.98	2.90	2.84	2.78	2.73	3.85
CCCCCC1CCCC(=O)O1 (stereo not drawn) [delta decalactone]	2.34	2.26	2.19	2.12	2.05	1.52	1.33	1.17	1.03	0.92	0.81	0.72	0.64	2.42
CCCCCCC1CCC(=O)O1 (stereo not drawn) [gamma-decalactone]	2.30	2.22	2.14	2.07	2.00	1.47	1.27	1.11	0.97	0.85	0.75	0.65	0.57	2.38
CC1=CCC(C(C)(C)S)CC1 (stereo not drawn) [p-menthenethiol-1,8]	3.99	3.94	3.90	3.86	3.82	3.50	3.39	3.29	3.21	3.14	3.08	3.02	2.98	4.04
Ethyldimethylpyrazine	1.48	1.36	1.25	1.14	1.04	0.25	−0.05	−0.29	−0.50	−0.68	−0.83	−0.97	−1.09	1.60
Isopropylmethoxypyrazine	1.99	1.90	1.82	1.74	1.66	1.05	0.83	0.64	0.48	0.35	0.23	0.12	0.03	2.09
